Several values for one entry are separate records, joined by “and”; a condition that tells them apart may be missing. Identical values can stand only once.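 Assay format: 96-well plates, 48-hour exposure. At the GI50, growth is halved. At the TGI there is no net growth.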

For 16 compounds, GI50 and TGI results are on record in PubChem BioAssay (NCI).

Some test systems named below: SF-539 CNS; SK-OV-3 ovarian; SNB-19 CNS; HOP-92 NSCLC; UACC-257 melanoma; LXFL 529 NSCLC; HS 578T breast; PC-3 prostate; M19-MEL melanoma; HOP-18 NSCLC.
Holding throughout (test): inhibition of tumour cell growth, NCI panel, 48 h

On to `N.N.N.N.O=C([O-])CCl.O=C([O-])CCl.[Co+3].[O-][Cl+3]([O-])([O-])[O-]`, for which the GI50 with SF-539 CNS is more than 100 µM; with SK-OV-3 ovarian, more than 100 µM; with SNB-19 CNS it was more than 100 µM; in the assay with HOP-92 NSCLC it was 86.5 µM; in the assay with UACC-257 melanoma, more than 100 µM; in the assay with LXFL 529 NSCLC, more than 100 µM. The TGI with SF-539 CNS, in the assay on SK-OV-3 ovarian, in the assay on SNB-19 CNS, in the assay with HOP-92 NSCLC, in the assay on UACC-257 melanoma and in the assay on LXFL 529 NSCLC was more than 100 µM in each case.
For the compound `C[N+](C)(C)CC1CCCc2ccccc2C1=O` (centres undefined), the GI50 with SF-539 CNS was 8.75 µM. Moreover, the TGI with SF-539 CNS came out at 31.7 µM; in the assay with SK-OV-3 ovarian, 34.5 µM; with HS 578T breast, 85.8 µM; with SNB-19 CNS, 85.6 µM; in the assay on HOP-92 NSCLC, 26.7 µM; with PC-3 prostate, 30.8 µM. The TGI in the assay on UACC-257 melanoma turned out to be 32.4 µM.
`CCN(CC)CCCN1CCc2c([nH]c3ccccc23)C1c1cccnc1` (centres undefined): the TGI with SF-539 CNS, with SK-OV-3 ovarian, with SNB-19 CNS, in the assay with HOP-92 NSCLC, in the assay on M19-MEL melanoma and in the assay on UACC-257 melanoma was more than 100 µM throughout. The compound further gave a TGI in the assay with LXFL 529 NSCLC of more than 100 µM.
On to `O=C1CCC2(c3ccc(Cl)cc3)Nc3ncccc3N12` (centres undefined), for which the TGI with SF-539 CNS, in the assay with SK-OV-3 ovarian, in the assay on HOP-92 NSCLC, with M19-MEL melanoma, in the assay on UACC-257 melanoma and with LXFL 529 NSCLC was more than 100 µM throughout.
`Cn1cc(C2=C(c3ccc(N)cc3)C(=O)NC2=O)c2ccccc21`: the GI50 in the assay with SF-539 CNS is 9.02 µM; in the assay on SK-OV-3 ovarian, 13.9 µM; in the assay on HS 578T breast, 3.01 µM; with SNB-19 CNS, more than 25 µM; with HOP-92 NSCLC, more than 25 µM; in the assay with PC-3 prostate, 17 µM. In addition, the GI50 with UACC-257 melanoma was more than 25 µM. Further, the TGI in the assay with SF-539 CNS is more than 25 µM; with SK-OV-3 ovarian it was more than 25 µM; in the assay with HS 578T breast it was more than 16.1 µM; in the assay with SNB-19 CNS, more than 25 µM; in the assay on HOP-92 NSCLC it was more than 25 µM; in the assay with PC-3 prostate it was more than 25 µM. In the assay with UACC-257 melanoma, this compound had a TGI of more than 25 µM.
For `CCOC(=O)c1ccc(NC(=O)Oc2ccc3c(C)cc(=O)oc3c2)cc1`, the TGI is more than 100 µM with SF-539 CNS; 94.4 µM in the assay with SK-OV-3 ovarian; 84.1 µM in the assay with HS 578T breast; more than 100 µM in the assay with SNB-19 CNS; 54.1 µM in the assay with HOP-92 NSCLC; more than 100 µM in the assay on PC-3 prostate. The compound further displayed a TGI in the assay with UACC-257 melanoma of more than 100 µM.
For the compound `Cc1cc(C)c2c(n1)sc1c(Nc3ccc(Cl)cc3)ncnc12`, the GI50 in the assay with SF-539 CNS was less than 0.01 µM; in the assay with SK-OV-3 ovarian it was 0.0418 µM; in the assay on HS 578T breast it was more than 100 µM; in the assay with SNB-19 CNS, less than 0.01 µM; in the assay on HOP-92 NSCLC it was 0.0288 µM; in the assay with PC-3 prostate, 0.199 µM. For the same compound, the GI50 in the assay on UACC-257 melanoma is 0.107 µM. In addition, the TGI with SF-539 CNS is 0.0882 µM; in the assay on SK-OV-3 ovarian, more than 100 µM; in the assay with HS 578T breast it was more than 100 µM; in the assay on SNB-19 CNS, more than 100 µM; with PC-3 prostate, more than 100 µM; in the assay with UACC-257 melanoma it was more than 100 µM.
For the compound `COC(=O)C(C(=O)c1ccccc1)C(C(=O)C(=O)Nc1ccc(OC)cc1OC)C(=O)C(=O)c1ccc(C)cc1` (centres undefined), the TGI in the assay on SF-539 CNS, in the assay with SK-OV-3 ovarian, in the assay with SNB-19 CNS, in the assay with M19-MEL melanoma, in the assay with HOP-18 NSCLC and in the assay with UACC-257 melanoma was more than 100 µM each time. For the same compound, the TGI with LXFL 529 NSCLC was more than 100 µM.
For the compound `CCC(=O)CC(=O)CCC(=O)Nc1cc(C)ccc1C`, the TGI with SF-539 CNS, in the assay with SK-OV-3 ovarian, in the assay on SNB-19 CNS, in the assay with HOP-92 NSCLC, in the assay with HOP-18 NSCLC and in the assay on LXFL 529 NSCLC was more than 100 µM in each case.
With `OC(CC1SCCCS1)c1ccccc1` (centres undefined), the TGI in the assay with SF-539 CNS, in the assay on SK-OV-3 ovarian, in the assay with SNB-19 CNS, with M19-MEL melanoma, in the assay on HOP-18 NSCLC and with UACC-257 melanoma was more than 100 µM each time. Further, in the assay on LXFL 529 NSCLC, the TGI is more than 100 µM.
For `O=C(Nc1ccc2ncccc2c1)Nc1ccc2ncccc2c1`, the TGI in the assay with SF-539 CNS, with SK-OV-3 ovarian, in the assay on HS 578T breast, in the assay with SNB-19 CNS, in the assay on HOP-92 NSCLC and with PC-3 prostate was more than 100 µM each time. This compound registered a TGI in the assay on UACC-257 melanoma of more than 100 µM.
For `CC(C)CCC1CC2C(=O)N(c3ccccc3)C(=O)C2c2[nH]c3ccccc3c21` (centres undefined), the TGI turned out to be 10.8 µM in the assay with SF-539 CNS; 32.2 µM in the assay on SK-OV-3 ovarian; 20.6 µM in the assay on SNB-19 CNS; 20 µM with M19-MEL melanoma; 21.6 µM in the assay with HOP-18 NSCLC; 20.2 µM with LXFL 529 NSCLC.
For `NC(=S)N/N=C(\CC1OC(=O)c2ccccc21)c1ccc(Cl)cc1` (centres undefined), the TGI in the assay with SF-539 CNS was 44.9 µM; with SK-OV-3 ovarian, more than 100 µM; in the assay on SNB-19 CNS, more than 100 µM; in the assay on HOP-92 NSCLC, 91.7 µM; in the assay on M19-MEL melanoma, 66.1 µM; in the assay with UACC-257 melanoma, more than 100 µM. Also, the TGI with LXFL 529 NSCLC was more than 100 µM.
Take `CN(C)CCNC(=O)c1cccc2ccc(-c3ccc(O)cc3)nc12`: the TGI is 15.1 µM and 13.9 µM in the assay on SF-539 CNS; 15.7 µM and 9.75 µM in the assay on SK-OV-3 ovarian; 13.4 µM with HS 578T breast; 15.4 µM and 12 µM with SNB-19 CNS; 11.3 µM and 11.6 µM in the assay on HOP-92 NSCLC; 8.86 µM in the assay with PC-3 prostate. Besides, the TGI in the assay on M19-MEL melanoma is 7.04 µM and 6.83 µM; with HOP-18 NSCLC it was 7.14 µM and 8.35 µM; with UACC-257 melanoma, 8.29 µM and 10.1 µM. In addition, the GI50 with SNB-19 CNS is 2.41 µM; with M19-MEL melanoma it was 2.12 µM; in the assay with HOP-18 NSCLC, 2.44 µM; with UACC-257 melanoma, 1.06 µM.
`COc1cccc(C2CC(C)(O)Oc3cc4c(cc32)OCO4)c1O` (centres undefined): the TGI with SF-539 CNS is 38.5 µM; in the assay with SK-OV-3 ovarian, more than 100 µM; in the assay with HS 578T breast it was 51.6 µM; with SNB-19 CNS it was more than 100 µM; in the assay with HOP-92 NSCLC it was 92.5 µM; with PC-3 prostate it was more than 100 µM. The same compound gave a TGI with UACC-257 melanoma of more than 100 µM.
As to `c1ccc2cc(-c3cc4ccccc4s3)ccc2c1`, the TGI in the assay on SF-539 CNS, in the assay on SK-OV-3 ovarian, in the assay on SNB-19 CNS, with HOP-92 NSCLC, in the assay on M19-MEL melanoma and with HOP-18 NSCLC was more than 100 µM in each case. The compound also showed a TGI with UACC-257 melanoma of more than 100 µM.
